Values quoted from earlier work as cited in patent US20120082623A1, “SHH Regulation and Methods Thereof” (priority 2009, published 2012).

Tested on: SVZ derived EGFR+ cells
Settings: neurospheres, dose dependent manner; cited from earlier work

In the case of NCCc1ccc(O)c(O)c1 [dopamine], the “proliferation of SVZ derived EGFR+ cells” value is listed as “increased the proliferation of SVZ derived EGFR+ cells”.
